Reference: patent US20230203130A1, “A PEPTIDE COCKTAIL” (Hubro Therapeutics AS, priority 2020, published 2023)
“Also recorded” adds a separate entry of the source. Where two headings read alike, the source gives them in different places. Where no end group is shown, it is not given here.

Key:
T cells = conditions: cited from earlier work; for immunogenicity / T-cell responses / patients recognizing the peptide: Saeterdal et al., PNAS 2001; for immunogenicity / T-cell responses: tumour infiltrating Th cells, MSI+ tumours
[1] = test system: T-cells from PMBCs from healthy donors; experiment: T-cell proliferation after induction of T-cells with fsp2 (Example 5); assay type: cell-based, human; conditions: one round of in vitro stimulation, FIG. 13
Description: A similar protocol to that set out in Example 4 was used to test the immunogenicity of fsp6 (SEQ ID NOs: 24) and fsp7 (SEQ ID NO: 123). Fsp2 (SEQ ID NO: 21; 10 μM) was used to induce T-cells from PMBCs isolated from fresh buffy coats from four healthy donors. At day 14 after induction, a T-cell proliferation assay was carried out as in Example 4, using fsp2 (SEQ ID NO: 21), fsp6 (SEQ ID NO: 24) and fsp7 (SEQ ID NO: 123) as test peptides. The T-cell proliferation results after one round of in vitro stimulation are presented as stimulation index (SI) in FIG. 13. […] It is also expected, in view of the results shown in FIGS. 11 and 12, that a peptide having the sequence of fsp6 (SEQ ID NO: […]) but having a C-to-G amino acid substitution corresponding to that in fsp2 is also immunogenic and is useful as a vaccine or treatment against cancer.

[2] = test system: T cells (PBMC) from healthy donors; experiment: T-cell proliferation (3H-thymidine, SI) after in vitro stimulation of PBMC with cocktail fsp2+fsp4 (Example 4); assay type: cell-based, human; parameters: T cell proliferation (stimulation index, SI): immunogenicity: dose or concentration left out as unconfirmed; conditions: for relative immunogenicity: FIGS. 10 and 11, compared with fsp3 and fsp4; for T cell proliferation (stimulation index, SI): immunogenicity: first and second round of in vitro stimulation with cocktail of fsp2 and fsp4, four healthy donors, FIGS. 10-12
Description: Fresh buffy coats from four healthy donors were obtained from a blood bank.
Peripheral blood mononuclear cells (PBMC) isolated from fresh buffy coats from four healthy donors were counted and suspended in DC medium to 15*10^6 cells/ml, and subsequently diluted with DC-medium to 4*10^6 cells/ml (Table 6).
Four 24-well plates were used for each donor, with 4*10^6 cells per well (each well has a volume of 1 ml).
Peptide cocktail: Solution of peptides fsp2+fsp4, containing […] of each peptide. 40 μl peptide solution was added to each well.
The plates were incubated in a cell incubator for 14 days (37° C., 5% CO2). IL-2 and IL-7 were added on day 3. The cells were inspected daily.
Test peptides: fsp2+fsp4 (SEQ ID NOs: 21 and 23), fsp1 (SEQ ID NO: 20), fsp2 (SEQ ID NO: 21), fsp3 (SEQ ID NO: 22), fsp4 (SEQ ID NO: 23), fsp5 (SEQ ID NO: 19).
Negative controls: T cells, T cells+APC (without addition of test peptides)
Cells and reagents were added to plate wells (in triplicate) as described in Tables 8 and 9 below. The total volume added to each well was 0.20 ml. • T cells (PBMC): 50 000 cells/well (0.25*10^6 cells/ml) • APC: Irradiated (30 Gy, 8 minutes) autologous feeder cells: 50 000 cells/well • (fspx): 0.2 nmol peptide/well (each peptide), concentration: […] peptide. (fsp was dissolved in DMSO before dilution to correct concentration)
The plates were incubated in a cell incubator for 48 hours (37° C., 5% CO2).
After incubation for 48 hours, 20 μl 3H-tThymidine solution (5 Ci/ml) was added to each well and the plates were incubated for approximately 17 hours (37° C., 5% CO2).
After 17 hours the cells were harvested (Unifilters) and dried on the filters at 45° C. until completely dry. After covering the bottom of the Unifilters with adhesive covers (delivered with the Unifilters) 25 μl micro scintillation liquid was added to each well, the plate was covered with TopSeal and 3H-Thymidine uptake was measured as counts per minute (CPM) using a microplate scintillation counter.
The T cell proliferation results after the first round of in vitro stimulation with the cocktail of fsp2 and fsp4 peptides are presented as stimulation index (SI) in FIG. 10. SI=mean CPM (triplicates) of (T cells+APC+test peptide(s)) divided by mean CPM (triplicates) of (T cells+APC). SI>1 indicates an increase in T-cell proliferation and SI 2 is a clear sign of immunogenicity.
PBMCs harvested after the first in vitro stimulation were re-stimulated in vitro according to the protocol set out above, with 2×10^6 cells per well. T-cell proliferation was tested according to the protocol set out above.

[3] = test system: T-cells from PBMC bulk cultures of healthy donors; experiment: Peptide-specific T-cell proliferation after stimulation of PBMC with cocktail fsp2+fsp8+fsp9 (Example 7); assay type: cell-based, human; conditions: FIGS. 16-18; for T-cell response: three donors; for T-cell response to the peptide alone: after only one round of stimulation with the peptide mixture
Description: PBMCs isolated from buffy coats from four healthy donors (obtained from a blood bank) were suspended in complete CellGro DC medium to 15*10^6 cells/ml and diluted to 4*10^6 cells/ml (Table 14).
On day 1, 1 ml of PBMC suspension (4×10^6 cells/ml) from each donor was transferred to wells of 24-well plates (4*10^6 cells per well) and 60 μl of the peptide cocktail (fsp2+fsp8+fsp9) stock solution (166.67 μM/each peptide) was added to each well. The plates were incubated in a cell incubator for 14 days. IL-2 and IL-7 was added on day 3 (0.50 ml DC medium containing 60 U/ml IL-2 and 15 ng/ml IL-7). The cells were inspected daily and DC medium with cytokines (IL-2, IL7) was refreshed according to in house laboratory routines.
The in vitro stimulation of bulk cultures was repeated a further two times (i.e. a total of three stimulations) using PBMCs harvested after the preceding round of in vitro stimulation. Peptide specific T-cell proliferation was tested on day 14, after each round of stimulation, such that T-cell proliferation was tested on days 14, 28 and 42 after the first round of stimulation.
The cells from the bulk cultures were harvested (5 minutes at 300×g centrifugation) and re-suspended in DC medium (5 ml). An aliquot of the 5 ml resuspension was diluted 5 times and the T-cells counted in order to calculate the volume required to provide 5×10^4 cells per well for the proliferation assay. T-cells from each donor were transferred (triplicates) to wells of 96-well plates (5×10^4 cells per well) together with autologous, irradiated (30 Gy for 8 minutes) PBMCs (5×10^4 cells per well) and test peptide(s) (final concentration 10 μM/each peptide). Negative controls were wells without test peptide(s) and positive controls were wells with SEC-3 (0.1 μg/ml) without test peptide(s). The cells (plates) were incubated for 48 hours (37° C./5% CO2). After 48 hours, 20 μL of 3H-Thymidine (3.7×104 Bq) was added to the cells and incubation was continued for 17 hours. The cells were harvested (Unifilters using the Filtermate 196 Harvester) and dried on the filters for approx. 4.5 hours at 45° C. The cells were counted (CPM) by using the standard in-house laboratory protocol (TopCount Packard microplate scintillation beta counter and run programme).
Peptide-specific T-cell proliferation was measured after 14 days of stimulation of PBMC bulk cultures with a peptide cocktail containing fsp2, fsp8 and fsp9 (10 μM each peptide). Proliferation induced by each of the single peptides and the peptide cocktail was tested at a concentration of […] (each peptide).
Peptide-specific T-cell proliferation was measured after 14 days of re-stimulation of PBMC with a peptide cocktail containing fsp2, fsp8 and fsp9 ([…] each peptide). T-cell proliferation induced by each of the single peptides and the peptide cocktail was tested. The single peptides were tested at a concentration of 10 μM. The peptide cocktail was tested using two different amounts of each peptide in the cocktail, namely, a peptide cocktail containing […] each peptide and a peptide cocktail containing 3.33 μM each peptide.
Peptide-specific T-cell proliferation was measured after 14 days of a further re-stimulation of PBMC with a peptide cocktail containing fsp2, fsp8 and fsp9 ([…] each peptide). T-cell proliferation induced by each of the single peptides and the peptide cocktail was tested. The single peptides were tested at a concentration of 10 μM. […]

[4] = test system: T-cells from PMBCs of healthy donors; experiment: T-cell proliferation after stimulation of PMBCs with mixture fsp10, fsp11 and fsp13 (Example 8); assay type: cell-based, human; conditions: donor 1, one round of in vitro stimulation (14 days), 10 μM; FIG. 19
Description: Using a similar procedure to that used in Examples 4 and 7 above, PMBCs from four healthy donors were stimulated in vitro with a peptide mixture containing equimolar amounts (10 uM) of fsp10 (SEQ ID NO: 28), fsp11 (SEQ ID NO: 29) and fsp13 (SEQ ID NO: 31).
After one round of stimulation (14 days), T-cells were harvested and tested for recognition of the peptide mixture, using single peptide concentrations of 10 μM. T-cell proliferation was measured as counts per minute (CPM) after uptake of ^3H-thymidine in a standard T cell proliferation assay.
The PMBCs from the four healthy donors underwent a second round of in vitro stimulation, and T-cells were again harvested and tested for proliferation against the peptide mixture and the individual peptides. […] While it has, in the past, been considered that a SI value of greater than 2 is the criterion for indicating a T-cell response in a T-cell proliferation assay, this is only the case in subjects who have been vaccinated prior to the T-cell proliferation assay. Where a healthy subject has not been vaccinated before the T-cell proliferation assay (as in the present T-cell proliferation assay), it is not expected that a SI value of 2 or greater will be achieved. Therefore, in non-vaccinated, healthy subjects, an increase in the SI value above 1 is indicative of a T-cell response.

AMTTSSSQKNITPAILTCC (listed as Homo sapiens) [p537, prior art peptide of mutTGFβR2]
immunogenicity / T-cell responses (T cells): not immunogenic

KCIMKEKKSLVRLSSCV (listed as Homo sapiens) [fsp6, peptide of −1a frameshifted TGFβR2]
T-cell activation (SI) ([1]; day 14): capable of activating T-cells | relative immunogenicity [1]: less immunogenic than fsp2

KCIMKEKKSLVRLSSCVPVALMSA (listed as Homo sapiens) [fsp1, peptide of −1a frameshifted TGFβR2]
relative immunogenicity [2]: more immunogenic than peptides which do not comprise amino acids from the wild-type sequence of TGFβR2 | T cell proliferation (stimulation index, SI): immunogenicity [2]: stimulated T-cells induced from PMBCs

KGIMKEKKSLVRLSSCVPVALMSA (not fully specified) [fsp2, modified peptide of −1a frameshifted TGFβR2]
T-cell response [3]: able to induce a T-cell response | relative immunogenicity [1]: much more immunogenic than fsp7 | relative immunogenicity [2]: more immunogenic than peptides which do not comprise amino acids from the wild-type sequence of TGFβR2 | T cell proliferation (stimulation index, SI): immunogenicity [2]: immunogenic and can activate T-cells

KKTLRNHLFLIRWIILTFLQKILK (listed as Homo sapiens) [fsp10, peptide of −1a frameshifted KIAA2018]
T-cell response (proliferation, CPM) [4]: did not stimulate T-cells

KTILKKAGIGMCVKVSSIFFINKQK (listed as Homo sapiens) [fsp9, peptide of −1a frameshifted TAF1β]
T-cell response to the peptide alone [3]: induces a T-cell response | T-cell response [3]: able to induce a T-cell response

PKCIMKEKKKSLVRLSSCV (listed as Homo sapiens) [p541, prior art peptide of mutTGFβR2]
immunogenicity / T-cell responses (T cells): able to induce T-cell responses in some patients | immunogenicity / T-cell responses (T cells; listed as p4541): immunogenic

RNRIPAVLRTEGEPLHTPSVGMRET (listed as Homo sapiens) [fsp8, peptide of −1a frameshifted ASTE1]
T-cell response to the peptide alone [3]: induces a T-cell response | T-cell response [3]: able to induce a T-cell response

SLVRLSSCV (listed as Homo sapiens) [p523, prior art peptide of mutTGFβR2]
immunogenicity (T cells; EP1078000 FIG. 14, four rounds of stimulation of the T-cells): immunogenic | immunogenicity (T cells; Linnebacher et al., FIG. 1): not immunogenic

SLVRLSSCVPVALMSAMTTSSSQ (listed as Homo sapiens) [p538, prior art peptide of mutTGFβR2]
patients recognizing the peptide (T cells; patients having spontaneous MSI+ colon cancer): two of three | patients recognizing the peptide (T cells; patients with HNPCC): all three | immunogenicity / T-cell responses (T cells): highly immunogenic

SPKCIMKEKKSLVRLSSCVPVA (listed as Homo sapiens) [P540, prior art peptide of mutTGFβR2]
immunogenicity / T-cell responses (T cells): able to induce T-cell responses in some patients; also recorded: immunogenic

SSGVPVALMSAMTTSSSQKN (not fully specified) [fsp4, modified peptide of −1a frameshifted TGFβR2]
T cell proliferation (stimulation index, SI): immunogenicity [2]: immunogenic and can activate T-cells

fsp7: peptide of −1a frameshifted TGFβR2; same sequence as fsp2 but truncated at the N-terminus (VRLSSCVPVALMSA; listed as Homo sapiens)
relative immunogenicity [1]: both fsp6 and fsp2 are much more immunogenic than fsp7
